Measurements taken from US20230257396A1, “MACROCYCLES AND THEIR USE” (BLOSSOMHILL THERAPEUTICS, INC., priority 2020, published 2023).

Columns and labels:
Assay in all cases: KINOMEscan kinase binding assay (Eurofins/DiscoveRx), % Ctrl
[1] = target: T1, kinases (Homo sapiens, UniProt P00533, L858R/T790M); settings: 1 μM; target EGFR(L858R, T790M)
T1 construct: purchased Eurofins/DiscoveRx; host or cells: E. coli BL21-derived host (T7 phage display) for most kinases; HEK-293 for the rest
In short: (§1)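 Competition binding: DNA- or phage-tagged kinases (T7 phage in E. coli BL21, or HEK-293-expressed) with immobilized biotinylated ligand beads and test compound, 1 h at room temperature. Bead-bound kinase eluted and quantified by qPCR; % Ctrl = (compound − positive control)/(negative control − positive control) ×100 at a single compound concentration.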

[2] = target: T2, kinases (Homo sapiens, UniProt P36888, N841I); settings: 1 μM; target FLT3(N841I)
T2 construct: purchased Eurofins/DiscoveRx; host or cells: E. coli BL21-derived host (T7 phage display) for most kinases; HEK-293 for the rest
T2 sequence (P36888 27-993 N841I): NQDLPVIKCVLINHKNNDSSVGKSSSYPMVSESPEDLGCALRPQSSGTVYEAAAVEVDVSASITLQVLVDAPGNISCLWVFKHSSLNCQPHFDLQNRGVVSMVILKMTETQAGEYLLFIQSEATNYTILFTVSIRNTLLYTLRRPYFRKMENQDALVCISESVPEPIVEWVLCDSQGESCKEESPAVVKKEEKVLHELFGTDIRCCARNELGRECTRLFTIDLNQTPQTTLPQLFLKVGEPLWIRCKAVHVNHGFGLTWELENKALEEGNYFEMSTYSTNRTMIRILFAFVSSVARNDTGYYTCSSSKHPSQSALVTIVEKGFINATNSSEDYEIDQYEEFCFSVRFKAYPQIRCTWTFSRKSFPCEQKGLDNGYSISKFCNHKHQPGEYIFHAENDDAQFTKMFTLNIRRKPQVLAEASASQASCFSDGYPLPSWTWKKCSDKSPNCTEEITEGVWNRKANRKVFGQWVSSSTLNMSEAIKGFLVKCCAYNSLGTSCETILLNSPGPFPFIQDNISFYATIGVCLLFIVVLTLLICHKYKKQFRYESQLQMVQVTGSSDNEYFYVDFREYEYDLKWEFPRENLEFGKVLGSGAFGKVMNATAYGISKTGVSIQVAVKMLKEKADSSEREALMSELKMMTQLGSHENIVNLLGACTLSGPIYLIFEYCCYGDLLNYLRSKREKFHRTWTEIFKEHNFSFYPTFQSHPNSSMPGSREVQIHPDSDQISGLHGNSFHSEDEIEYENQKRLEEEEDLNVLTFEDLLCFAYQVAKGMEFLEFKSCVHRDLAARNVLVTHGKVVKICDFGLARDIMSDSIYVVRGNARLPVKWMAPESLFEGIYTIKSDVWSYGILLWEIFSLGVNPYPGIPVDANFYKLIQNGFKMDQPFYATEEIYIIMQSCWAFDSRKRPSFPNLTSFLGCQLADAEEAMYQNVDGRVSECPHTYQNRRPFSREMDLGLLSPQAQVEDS
In short: as §1

[3] = target: T3, kinases (Homo sapiens, UniProt P00519, Y253F); settings: 1 μM; target ABL1(Y253F)-phosphorylated
T3 construct: purchased Eurofins/DiscoveRx; host or cells: E. coli BL21-derived host (T7 phage display) for most kinases; HEK-293 for the rest
In short: as §1

[4] = target: T4, kinases (Homo sapiens, UniProt P00519); settings: 1 μM; for % Ctrl, ABL1-nonphosphorylated: target ABL1-nonphosphorylated; for % Ctrl, ABL1-phosphorylated: target ABL1-phosphorylated
T4 construct: purchased Eurofins/DiscoveRx; host or cells: E. coli BL21-derived host (T7 phage display) for most kinases; HEK-293 for the rest
In short: as §1

[5] = target: T5, kinases (Homo sapiens, UniProt P00533, L858R); settings: 1 μM; target EGFR(L858R)
T5 construct: purchased Eurofins/DiscoveRx; host or cells: E. coli BL21-derived host (T7 phage display) for most kinases; HEK-293 for the rest
In short: as §1

[6] = target: T6, kinases (Homo sapiens, UniProt P10721, D816H); settings: 1 μM; target KIT(D816H)
T6 construct: purchased Eurofins/DiscoveRx; host or cells: E. coli BL21-derived host (T7 phage display) for most kinases; HEK-293 for the rest
In short: as §1

[7] = target: T7, kinases (Homo sapiens, UniProt P00533, DEL752-759); settings: 1 μM; target EGFR(S752-I759del)
T7 construct: purchased Eurofins/DiscoveRx; host or cells: E. coli BL21-derived host (T7 phage display) for most kinases; HEK-293 for the rest
In short: as §1

[8] = target: T8, kinases (Homo sapiens, UniProt P00533, DEL746-750); settings: 1 μM; target EGFR(E746-A750del)
T8 construct: purchased Eurofins/DiscoveRx; host or cells: E. coli BL21-derived host (T7 phage display) for most kinases; HEK-293 for the rest
In short: as §1

[9] = target: T9, kinases (Homo sapiens, UniProt P35916); settings: 1 μM; target FLT4
T9 construct: purchased Eurofins/DiscoveRx; host or cells: E. coli BL21-derived host (T7 phage display) for most kinases; HEK-293 for the rest
In short: as §1

[10] = target: T10, kinases (Homo sapiens, UniProt P00519, F317L); settings: 1 μM; for % Ctrl, ABL1(F317L)-nonphosphorylated: target ABL1(F317L)-nonphosphorylated; for % Ctrl, ABL1(F317L)-phosphorylated: target ABL1(F317L)-phosphorylated
T10 construct: purchased Eurofins/DiscoveRx; host or cells: E. coli BL21-derived host (T7 phage display) for most kinases; HEK-293 for the rest
In short: as §1

T9 sequence (P35916 25-1363): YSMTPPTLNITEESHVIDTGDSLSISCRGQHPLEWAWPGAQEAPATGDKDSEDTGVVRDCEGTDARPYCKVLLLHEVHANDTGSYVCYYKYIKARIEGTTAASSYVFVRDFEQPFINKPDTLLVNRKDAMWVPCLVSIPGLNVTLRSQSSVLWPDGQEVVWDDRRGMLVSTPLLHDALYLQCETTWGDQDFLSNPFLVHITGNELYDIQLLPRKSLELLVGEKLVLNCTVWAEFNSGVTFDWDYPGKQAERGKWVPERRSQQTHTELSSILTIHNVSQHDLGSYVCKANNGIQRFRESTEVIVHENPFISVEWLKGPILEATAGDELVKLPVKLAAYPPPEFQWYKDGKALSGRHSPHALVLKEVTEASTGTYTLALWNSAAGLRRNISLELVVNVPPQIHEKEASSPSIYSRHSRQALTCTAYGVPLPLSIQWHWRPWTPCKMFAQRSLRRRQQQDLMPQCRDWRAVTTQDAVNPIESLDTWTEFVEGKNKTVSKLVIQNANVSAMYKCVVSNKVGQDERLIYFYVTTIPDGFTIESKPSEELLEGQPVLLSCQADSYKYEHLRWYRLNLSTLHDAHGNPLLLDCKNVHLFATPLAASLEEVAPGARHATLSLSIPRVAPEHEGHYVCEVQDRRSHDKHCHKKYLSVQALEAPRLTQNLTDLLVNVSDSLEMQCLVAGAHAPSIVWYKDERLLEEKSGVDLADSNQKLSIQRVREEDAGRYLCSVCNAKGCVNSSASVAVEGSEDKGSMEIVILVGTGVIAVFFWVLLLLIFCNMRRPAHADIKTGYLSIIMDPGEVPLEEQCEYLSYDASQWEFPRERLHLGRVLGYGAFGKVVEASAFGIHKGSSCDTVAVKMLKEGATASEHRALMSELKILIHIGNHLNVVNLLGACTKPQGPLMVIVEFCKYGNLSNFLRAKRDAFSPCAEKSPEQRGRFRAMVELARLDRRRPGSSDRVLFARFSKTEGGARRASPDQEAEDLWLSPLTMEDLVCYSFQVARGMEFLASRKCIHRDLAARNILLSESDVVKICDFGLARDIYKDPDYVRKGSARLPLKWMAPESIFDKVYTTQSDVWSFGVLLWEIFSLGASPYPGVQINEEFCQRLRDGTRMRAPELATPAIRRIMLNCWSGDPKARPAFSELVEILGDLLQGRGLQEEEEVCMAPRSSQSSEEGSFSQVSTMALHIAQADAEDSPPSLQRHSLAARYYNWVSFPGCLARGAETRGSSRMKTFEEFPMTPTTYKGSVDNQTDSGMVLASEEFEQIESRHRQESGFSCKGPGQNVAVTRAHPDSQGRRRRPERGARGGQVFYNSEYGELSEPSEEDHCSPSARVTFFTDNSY
T6 sequence (P10721 26-976 D816H): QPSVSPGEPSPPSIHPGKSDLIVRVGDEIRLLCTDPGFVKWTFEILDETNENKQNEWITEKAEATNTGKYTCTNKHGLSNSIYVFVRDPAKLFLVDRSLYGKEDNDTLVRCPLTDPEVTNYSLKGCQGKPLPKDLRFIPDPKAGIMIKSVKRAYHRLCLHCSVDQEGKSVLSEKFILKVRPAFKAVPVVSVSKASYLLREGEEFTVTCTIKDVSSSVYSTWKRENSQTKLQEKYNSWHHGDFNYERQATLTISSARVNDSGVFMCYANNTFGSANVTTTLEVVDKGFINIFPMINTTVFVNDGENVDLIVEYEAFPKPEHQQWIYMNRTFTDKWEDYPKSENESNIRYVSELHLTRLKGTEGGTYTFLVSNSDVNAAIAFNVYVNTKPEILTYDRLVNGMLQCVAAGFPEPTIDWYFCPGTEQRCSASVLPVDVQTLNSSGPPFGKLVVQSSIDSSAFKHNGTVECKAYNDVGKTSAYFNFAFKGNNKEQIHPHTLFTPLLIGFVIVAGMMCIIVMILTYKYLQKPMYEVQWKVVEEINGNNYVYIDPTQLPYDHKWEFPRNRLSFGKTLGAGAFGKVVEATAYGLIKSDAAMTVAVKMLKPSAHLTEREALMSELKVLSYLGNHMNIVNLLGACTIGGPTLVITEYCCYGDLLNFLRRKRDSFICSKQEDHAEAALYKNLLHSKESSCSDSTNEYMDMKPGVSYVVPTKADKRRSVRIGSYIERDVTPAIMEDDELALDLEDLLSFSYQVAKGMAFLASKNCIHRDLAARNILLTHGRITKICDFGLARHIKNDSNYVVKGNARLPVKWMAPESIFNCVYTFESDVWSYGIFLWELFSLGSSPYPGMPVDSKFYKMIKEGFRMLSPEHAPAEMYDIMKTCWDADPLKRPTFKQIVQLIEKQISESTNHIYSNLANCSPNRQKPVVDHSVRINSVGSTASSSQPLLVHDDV

SMILES | % Ctrl, EGFR(L858R, T790M) [1] [% Ctrl] | % Ctrl, FLT3(N841I) [2] [% Ctrl] | % Ctrl, ABL1(Y253F)-phosphorylated [3] [% Ctrl] | % Ctrl, ABL1-nonphosphorylated [4] [% Ctrl] | % Ctrl, ABL1-phosphorylated [4] [% Ctrl] | % Ctrl, EGFR(L858R) [5] [% Ctrl] | % Ctrl, KIT(D816H) [6] [% Ctrl] | % Ctrl, EGFR(S752-I759del) [7] [% Ctrl] | % Ctrl, EGFR(E746-A750del) [8] [% Ctrl] | % Ctrl, FLT4 [9] [% Ctrl] | % Ctrl, ABL1(F317L)-nonphosphorylated [10] [% Ctrl] | % Ctrl, ABL1(F317L)-phosphorylated [10] [% Ctrl]
Cc1cc2c([nH]1)/C=C1\C(=O)Nc3cc(Cl)c(cc31)SCCOCCN(C)C2=O [Ex. 169, [16a(17)Z]-19-chloro-5-methyl-6,7,9,10-tetrahydro-1H-12,14-(ethanediylidene)dipyrrolo[3,4-g:2′,3′-j][1,4,13]oxathiazacyclopentadecine-4,16(5H,15H)-dione] | 37 | 0 | 0.1 | 0 | 0 | 52 | 8.3 | 61 | 9.9 | 0.1 | 0.6 | 0.1
Cc1cc2c([nH]1)/C=C1\C(=O)Nc3cnc(cc31)-c1cnn(C)c1CN(C)CCN(C)C2=O [Ex. 172, [3a(4)Z]-6,9,12,14-tetramethyl-9,10,11,12,13,14-hexahydro-17,1-(azenometheno)pyrazolo[4,3-m]dipyrrolo[3,2-f:3′,4′-i][1,4]diazacyclopentadecine-3,8(2H,5H)-dione] | 3.3 | 0 | 0.2 | 0.6 | 1.4 | 48 | 6.4 | 37 | 43 | 1.7 | 7.1 | 1.9
